Measurements taken from the supplement of paper PMC10307832.

Legend:
Experiment in all cases: relative viability (nuclei count vs DMSO), 5 days (fraction); higher = more cells survive
NCI-H460 = test system: NCI-H460
How it was run: (§1)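 For relative viability, nuclei counts in treated wells were divided by those in vehicle wells. Lung cancer cell lines had been pin-tool dosed in 1536-well plates the day after seeding and cultured for 5 days, then fixed and stained in one step (final 0.05% Triton X-100, 1% formaldehyde, 1 ug/ml Hoechst) and imaged at 4×. Doses were one drug alone or a fixed anchor-drug dose plus five library-drug doses (not always all listed) in √10 steps, and values are duplicate-plate medians.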

LOU-NH91 = test system: LOU-NH91
How it was run: as §1

NCI-H1563 = test system: NCI-H1563
How it was run: as §1

CAL-12T = test system: CAL-12T
How it was run: as §1

NCI-H2023 = test system: NCI-H2023
How it was run: as §1

NCI-H2085 = test system: NCI-H2085
How it was run: as §1

BEN = test system: BEN
How it was run: as §1

SK-LU-1 = test system: SK-LU-1
How it was run: as §1

NCI-H1650 = test system: NCI-H1650
How it was run: as §1

COR-L23 = test system: COR-L23
How it was run: as §1

NCI-H1734 = test system: NCI-H1734
How it was run: as §1

NCI-H1437 = test system: NCI-H1437
How it was run: as §1

NCI-H1975 = test system: NCI-H1975
How it was run: as §1

NCI-H1793 = test system: NCI-H1793
How it was run: as §1

NCI-H1651 = test system: NCI-H1651
How it was run: as §1

NCI-H1355 = test system: NCI-H1355
How it was run: as §1

NCI-H838 = test system: NCI-H838
How it was run: as §1

HCC-366 = test system: HCC-366
How it was run: as §1

LU99A = test system: LU99A
How it was run: as §1

NCI-H358 = test system: NCI-H358
How it was run: as §1

`O=c1cc(N2CCOCC2)oc2c(-c3cccc4c3sc3ccccc34)cccc12` + CS(=O)(=O)CCNCc1ccc(-c2ccc3ncnc(Nc4ccc(OCc5cccc(F)c5)c(Cl)c4)c3c2)o1 [Lapatinib] (partner 2 µM) was tested. Which relative viability (NCI-H460; first compound 0.01 µM) did it give?
Its relative viability is 0.926.

And the relative viability (NCI-H460; first compound 0.03162 µM)?
The relative viability was 1.07.

And the relative viability (NCI-H460; first compound 0.1 µM)?
The relative viability was 1.09.

What about the relative viability (NCI-H460; first compound 0.3162 µM) of the same compound?
The relative viability was 0.807.

What about the relative viability (NCI-H460; first compound 1 µM) of the same compound?
Its relative viability is 1.11.

What about the relative viability (LOU-NH91; first compound 0.01 µM) of the same compound?
Its relative viability is 0.775.

And the relative viability (LOU-NH91; first compound 0.03162 µM)?
Its relative viability is 0.774.

And the relative viability (LOU-NH91; first compound 0.1 µM)?
The relative viability was 0.755.

And the relative viability (LOU-NH91; first compound 0.3162 µM)?
Its relative viability is 0.744.

And the relative viability (LOU-NH91; first compound 1 µM)?
Its relative viability is 0.764.

What about the relative viability (NCI-H1563; first compound 0.01 µM) of the same compound?
The relative viability was 1.27.

What about the relative viability (NCI-H1563; first compound 0.03162 µM) of the same compound?
Its relative viability is 0.995.

And the relative viability (NCI-H1563; first compound 0.1 µM)?
The relative viability was 1.04.

And the relative viability (NCI-H1563; first compound 0.3162 µM)?
The relative viability was 0.762.

And the relative viability (NCI-H1563; first compound 1 µM)?
Its relative viability is 0.782.

What about the relative viability (CAL-12T; first compound 0.01 µM) of the same compound?
Its relative viability is 0.707.

And the relative viability (CAL-12T; first compound 0.1 µM)?
Its relative viability is 0.662.

What about the relative viability (CAL-12T; first compound 0.3162 µM) of the same compound?
The relative viability was 0.671.

What about the relative viability (CAL-12T; first compound 1 µM) of the same compound?
The relative viability was 0.691.

And the relative viability (NCI-H2023; first compound 0.01 µM)?
Its relative viability is 0.88.

What about the relative viability (NCI-H2023; first compound 0.03162 µM) of the same compound?
The relative viability was 0.975.

What about the relative viability (NCI-H2023; first compound 0.1 µM) of the same compound?
Its relative viability is 0.882.

What about the relative viability (NCI-H2023; first compound 0.3162 µM) of the same compound?
Its relative viability is 0.826.

And the relative viability (NCI-H2023; first compound 1 µM)?
Its relative viability is 0.887.

What about the relative viability (NCI-H2085; first compound 0.01 µM) of the same compound?
The relative viability was 0.796.

What about the relative viability (NCI-H2085; first compound 0.03162 µM) of the same compound?
Its relative viability is 0.757.

And the relative viability (NCI-H2085; first compound 0.1 µM)?
The relative viability was 0.775.

What about the relative viability (NCI-H2085; first compound 0.3162 µM) of the same compound?
Its relative viability is 0.734.

And the relative viability (NCI-H2085; first compound 1 µM)?
The relative viability was 0.751.

What about the relative viability (BEN; first compound 0.01 µM) of the same compound?
Its relative viability is 0.662.

What about the relative viability (BEN; first compound 0.03162 µM) of the same compound?
Its relative viability is 0.843.

And the relative viability (BEN; first compound 0.1 µM)?
The relative viability was 0.69.

What about the relative viability (BEN; first compound 0.3162 µM) of the same compound?
Its relative viability is 0.735.

What about the relative viability (BEN; first compound 1 µM) of the same compound?
Its relative viability is 0.67.

And the relative viability (SK-LU-1; first compound 0.01 µM)?
The relative viability was 0.808.

And the relative viability (SK-LU-1; first compound 0.03162 µM)?
Its relative viability is 0.815.

And the relative viability (SK-LU-1; first compound 0.1 µM)?
The relative viability was 0.671.

And the relative viability (SK-LU-1; first compound 0.3162 µM)?
The relative viability was 0.82.

What about the relative viability (SK-LU-1; first compound 1 µM) of the same compound?
The relative viability was 0.816.

What about the relative viability (NCI-H1650; first compound 0.03162 µM) of the same compound?
The relative viability was 0.831.

And the relative viability (NCI-H1650; first compound 0.1 µM)?
Its relative viability is 0.775.

And the relative viability (NCI-H1650; first compound 0.3162 µM)?
The relative viability was 0.756.

What about the relative viability (NCI-H1650; first compound 1 µM) of the same compound?
Its relative viability is 0.75.

And the relative viability (COR-L23; first compound 0.01 µM)?
The relative viability was 1.01.

What about the relative viability (COR-L23; first compound 0.03162 µM) of the same compound?
Its relative viability is 0.823.

What about the relative viability (COR-L23; first compound 0.1 µM) of the same compound?
Its relative viability is 0.924.

What about the relative viability (COR-L23; first compound 0.3162 µM) of the same compound?
Its relative viability is 0.843.

And the relative viability (COR-L23; first compound 1 µM)?
The relative viability was 1.

And the relative viability (NCI-H1734; first compound 0.01 µM)?
The relative viability was 1.12.

And the relative viability (NCI-H1734; first compound 0.03162 µM)?
The relative viability was 1.03.

What about the relative viability (NCI-H1734; first compound 0.1 µM) of the same compound?
Its relative viability is 1.12.

And the relative viability (NCI-H1734; first compound 0.3162 µM)?
The relative viability was 1.04.

And the relative viability (NCI-H1734; first compound 1 µM)?
Its relative viability is 0.927.

And the relative viability (NCI-H1437; first compound 0.01 µM)?
The relative viability was 0.793.

What about the relative viability (NCI-H1437; first compound 0.03162 µM) of the same compound?
Its relative viability is 0.783.

And the relative viability (NCI-H1437; first compound 0.1 µM)?
Its relative viability is 0.811.

What about the relative viability (NCI-H1437; first compound 0.3162 µM) of the same compound?
Its relative viability is 0.849.

And the relative viability (NCI-H1437; first compound 1 µM)?
Its relative viability is 0.813.

What about the relative viability (NCI-H1975; first compound 0.01 µM) of the same compound?
Its relative viability is 0.856.

And the relative viability (NCI-H1975; first compound 0.03162 µM)?
Its relative viability is 0.84.

What about the relative viability (NCI-H1975; first compound 0.1 µM) of the same compound?
The relative viability was 0.848.

And the relative viability (NCI-H1975; first compound 0.3162 µM)?
The relative viability was 0.849.

What about the relative viability (NCI-H1975; first compound 1 µM) of the same compound?
Its relative viability is 0.826.

What about the relative viability (NCI-H1793; first compound 0.01 µM) of the same compound?
Its relative viability is 0.707.

And the relative viability (NCI-H1793; first compound 0.03162 µM)?
Its relative viability is 0.824.

And the relative viability (NCI-H1793; first compound 0.1 µM)?
The relative viability was 0.656.

And the relative viability (NCI-H1793; first compound 0.3162 µM)?
Its relative viability is 0.499.

What about the relative viability (NCI-H1793; first compound 1 µM) of the same compound?
The relative viability was 0.45.

What about the relative viability (NCI-H1651; first compound 0.01 µM) of the same compound?
Its relative viability is 0.746.

And the relative viability (NCI-H1651; first compound 0.03162 µM)?
The relative viability was 0.909.

What about the relative viability (NCI-H1651; first compound 0.1 µM) of the same compound?
The relative viability was 0.875.

What about the relative viability (NCI-H1651; first compound 0.3162 µM) of the same compound?
The relative viability was 0.741.

What about the relative viability (NCI-H1651; first compound 1 µM) of the same compound?
The relative viability was 0.878.

What about the relative viability (NCI-H1355; first compound 0.01 µM) of the same compound?
Its relative viability is 0.998.

What about the relative viability (NCI-H1355; first compound 0.03162 µM) of the same compound?
Its relative viability is 1.

And the relative viability (NCI-H1355; first compound 0.3162 µM)?
The relative viability was 1.03.

What about the relative viability (NCI-H1355; first compound 1 µM) of the same compound?
The relative viability was 0.963.

What about the relative viability (NCI-H838; first compound 0.01 µM) of the same compound?
The relative viability was 1.08.

And the relative viability (NCI-H838; first compound 0.03162 µM)?
Its relative viability is 0.915.

And the relative viability (NCI-H838; first compound 0.1 µM)?
The relative viability was 0.984.

What about the relative viability (NCI-H838; first compound 0.3162 µM) of the same compound?
Its relative viability is 0.97.

What about the relative viability (NCI-H838; first compound 1 µM) of the same compound?
The relative viability was 0.969.

And the relative viability (HCC-366; first compound 0.01 µM)?
The relative viability was 0.968.

And the relative viability (HCC-366; first compound 0.03162 µM)?
Its relative viability is 1.06.

And the relative viability (HCC-366; first compound 0.1 µM)?
Its relative viability is 1.04.

What about the relative viability (HCC-366; first compound 0.3162 µM) of the same compound?
The relative viability was 1.04.

And the relative viability (HCC-366; first compound 1 µM)?
The relative viability was 1.04.

What about the relative viability (LU99A; first compound 0.01 µM) of the same compound?
The relative viability was 1.11.

And the relative viability (LU99A; first compound 0.03162 µM)?
The relative viability was 1.04.

What about the relative viability (LU99A; first compound 0.1 µM) of the same compound?
The relative viability was 0.921.

What about the relative viability (LU99A; first compound 0.3162 µM) of the same compound?
The relative viability was 1.02.

What about the relative viability (LU99A; first compound 1 µM) of the same compound?
The relative viability was 1.07.

What about the relative viability (NCI-H358; first compound 0.01 µM) of the same compound?
The relative viability was 0.515.

What about the relative viability (NCI-H358; first compound 0.03162 µM) of the same compound?
Its relative viability is 0.478.

What about the relative viability (NCI-H358; first compound 0.1 µM) of the same compound?
The relative viability was 0.482.

What about the relative viability (NCI-H358; first compound 0.3162 µM) of the same compound?
The relative viability was 0.467.

What about the relative viability (NCI-H358; first compound 1 µM) of the same compound?
Its relative viability is 0.433.
